From US7015242B2, “Methods for treating hyperactive gastrointestinal motility” (Wyeth, priority 2001, dated 2006)

Columns and labels:
[1] = tested on: isolated carbachol contracted rat bladder strips; test: Relaxation of isolated carbachol contracted rat bladder strips; details: for effect on retigabine-induced relaxation of bladder strips: M-current blockers added after retigabine
Experimental: (§1) Using quantitative rtPCR, the expression of KCNQ1, KCNQ3 and KCNQ5 potassium channels was identified in the rat urinary bladder. […] To further probe M-current activity in the bladder, retigabine (10 μM, M-current agonist) was tested in isolated bladder smooth muscle cells using standard patch-clamp techniques. […] This hyperpolarization was reversed by the addition of linopirdine (50 μM an M-current antagonist) to the tissue bath. […] This relaxation was reversed by the M-current blockers linopirdine and XE-991.

[2] = tested on: isolated precontracted guinea pig ileum; test: Isolated precontracted guinea pig ileum preparations in tissue bath
Experimental: Following the procedures of the previous example, the effects of retigabine on isolated precontracted guinea pig ileum preparations were studied. Sections of ileum were isolated from male guinea pigs and suspended in a tissue bath. One end of the tissue was anchored to the bottom of the bath, and the other end to a force transducer. Tissues were contracted with either 20 mM KCl or 200 nM carbachol. The KCNQ channel agonist retigabine was added to the tissue baths in increasing concentrations.

[3] = tested on: isolated bladder smooth muscle cells; test: Patch-clamp of isolated bladder smooth muscle cells (M-current activity); type: cell-based, rat
Experimental: as §1

[4] = target: T1, KCNQ2/3 potassium channels (Homo sapiens, UniProt O43525+O43526); details: oocytes; cited from earlier work
T1 construct: host or cells: oocytes (heterologous expression, as described in the cited article)
T1 sequence (O43526 whole entry): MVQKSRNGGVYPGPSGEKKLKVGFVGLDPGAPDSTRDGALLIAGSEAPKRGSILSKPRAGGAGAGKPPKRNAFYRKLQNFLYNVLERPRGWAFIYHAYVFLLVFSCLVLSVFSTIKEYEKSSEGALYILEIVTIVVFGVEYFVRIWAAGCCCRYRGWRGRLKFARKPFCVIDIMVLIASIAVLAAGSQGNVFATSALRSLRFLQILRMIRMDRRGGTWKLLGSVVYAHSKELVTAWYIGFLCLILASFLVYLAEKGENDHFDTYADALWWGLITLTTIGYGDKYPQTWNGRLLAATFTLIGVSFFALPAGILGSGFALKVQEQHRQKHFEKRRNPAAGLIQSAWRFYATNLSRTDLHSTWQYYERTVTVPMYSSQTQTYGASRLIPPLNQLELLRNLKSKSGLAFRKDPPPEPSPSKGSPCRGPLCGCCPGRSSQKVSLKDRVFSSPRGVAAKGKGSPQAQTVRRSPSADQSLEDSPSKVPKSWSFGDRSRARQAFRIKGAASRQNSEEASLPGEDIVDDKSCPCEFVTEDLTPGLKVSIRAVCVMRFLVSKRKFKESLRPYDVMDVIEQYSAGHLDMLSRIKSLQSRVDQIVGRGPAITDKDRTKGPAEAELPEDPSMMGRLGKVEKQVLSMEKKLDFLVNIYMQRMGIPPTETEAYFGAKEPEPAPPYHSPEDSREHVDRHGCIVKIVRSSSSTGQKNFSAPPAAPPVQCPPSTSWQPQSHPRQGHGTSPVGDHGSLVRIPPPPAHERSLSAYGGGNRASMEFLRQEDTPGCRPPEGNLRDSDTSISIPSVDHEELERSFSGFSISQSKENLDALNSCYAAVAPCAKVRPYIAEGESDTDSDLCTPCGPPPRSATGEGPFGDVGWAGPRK
T1 sequence (O43525 whole entry): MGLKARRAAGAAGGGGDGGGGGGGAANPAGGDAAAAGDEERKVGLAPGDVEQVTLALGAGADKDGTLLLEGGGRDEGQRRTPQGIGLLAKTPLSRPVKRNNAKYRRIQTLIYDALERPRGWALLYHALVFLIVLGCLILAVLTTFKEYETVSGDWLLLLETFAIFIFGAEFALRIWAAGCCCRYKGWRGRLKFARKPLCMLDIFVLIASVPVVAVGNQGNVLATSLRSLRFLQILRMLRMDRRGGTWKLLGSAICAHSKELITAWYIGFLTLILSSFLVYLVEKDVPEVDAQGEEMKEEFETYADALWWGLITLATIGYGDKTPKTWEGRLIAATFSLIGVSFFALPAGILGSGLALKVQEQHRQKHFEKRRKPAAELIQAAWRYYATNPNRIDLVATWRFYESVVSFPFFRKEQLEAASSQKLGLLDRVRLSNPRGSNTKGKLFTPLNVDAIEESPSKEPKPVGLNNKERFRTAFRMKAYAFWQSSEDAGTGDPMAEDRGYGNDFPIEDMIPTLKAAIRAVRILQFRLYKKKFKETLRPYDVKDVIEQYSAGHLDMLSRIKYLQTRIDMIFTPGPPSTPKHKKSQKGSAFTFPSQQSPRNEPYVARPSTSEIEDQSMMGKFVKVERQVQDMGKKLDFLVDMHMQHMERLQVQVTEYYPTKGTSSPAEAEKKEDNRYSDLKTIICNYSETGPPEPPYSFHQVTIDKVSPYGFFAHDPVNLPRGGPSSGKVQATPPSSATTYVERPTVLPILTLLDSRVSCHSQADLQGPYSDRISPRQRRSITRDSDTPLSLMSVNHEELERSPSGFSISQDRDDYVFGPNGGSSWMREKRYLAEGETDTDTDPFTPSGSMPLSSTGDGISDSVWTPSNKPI

SMILES	effect on retigabine-induced relaxation of bladder strips [1]	effect on responses to retigabine in ileum ([2]; both KCl and carbachol contracted tissues)	effect on retigabine-induced hyperpolarization ([3]; linopirdine 50 μM added to the tissue bath)	membrane hyperpolarization ([3]; retigabine 10 μM, n=5) [mV]	outward current insensitive to iberiotoxin ([3]; retigabine 10 μM, standard patch-clamp)	IC50 ([1]; Rattus norvegicus, read-out: IC50 of relaxation of carbachol contracted bladder strips) [µM]	inhibition of contraction of ileum ([2]; tissues contracted with 20 mM KCl or 200 nM carbachol, increasing concentrations)	channel deactivation [4]	rate of channel activation [4]	voltage dependence of channel activation [4]
O=C1c2ccccc2C(Cc2ccncc2)(Cc2ccncc2)c2ccccc21 [XE-991]	reversed	antagonized	–	–	–	–	–	–	–	–
O=C1N(c2ccccc2)c2ccccc2C1(Cc1ccncc1)Cc1ccncc1 [linopirdine]	reversed	–	reversed	–	–	–	–	–	–	–
CCOC(=O)Nc1ccc(NCc2ccc(F)cc2)cc1N [retigabine, N-[2-amino-4-(4-fluorobenzylamino)-phenyl]carbamic acid ethyl ester]	–	–	–	17.8±3.0	significantly increased	3.5 ± 0.9	concentration-dependent inhibition of contraction	slows channel deactivation	increases the rate of channel activation	shifts the voltage dependence of channel activation to more hyperpolarized membrane potentials
